The values that follow come from patent publication US12577241B2, “Polycyclic pyridopyrazine derivative” (Shionogi & Co., Ltd., priority 2019, dated 2026).

The test system of data set [1] is HIV. Briefly: Test Example 1: Anti-HIV activity (MT-4 cells, CellTiter-Glo). Type of data set: cell-based. Particulars: Human immunodeficiency virus 1, MT4, 96 h, 4 days culture, CellTiter-Glo luminescence, read-out: EC50 (50% HIV inhibitory concentration). The protocol:
Test Example 1: Anti-HIV Activity
Serial dilutions of a test sample were prepared in a 384-well microplate by a dispensing machine. 6.25×10^4 cells/mL of a MT-4 cell suspension was dispensed at 20 μL/well to the plate containing the test sample. Then, an HIV virus solution was dispensed at 20 μL/well. The plate was mixed with a plate mixer and cultured for 4 days in a CO2 incubator. On day 4 of culture, CellTiter-Glo or CellTiter-Glo 2.0 was dispensed at 20 μL/well. The plate was reacted while being stirred with the plate mixer at room temperature for about 15 minutes. The amount of luminescence of the plate after the reaction was measured with a microplate reader. A 50% HIV inhibitory concentration (EC50) was determined from a concentration-dependent curve using the following 4 parameter logistic curve fitting model. y=A+((B−A)/(1+((C/x)^D))) • A=minimum rate of inhibition (negative control, 0%) • B=maximum rate of inhibition (positive control, 100%) • C=compound concentration at an inflection point • D=slope coefficient • x=compound concentration • y=rate of inhibition (%) (Results)

A short description of data set [2]: Test Example 7: Metabolism stability test. The data set is classed as in vitro ADME. To be noted: human liver microsomes 0.5 mg protein/mL, 30 minutes, 37° C., NADPH, compound concentration 0.5 μmol/L. The protocol: Test Example 7: Metabolism Stability Test Commercially available pooled human liver microsomes were reacted with the compound of the present invention for a given time. A residual rate was calculated by the comparison between the reacted sample and an unreacted sample to evaluate the degree at which the compound of the present invention was metabolized in the liver. The compound was reacted at 37° C. for 0 minutes or 30 minutes in the presence of 1 mmol/L NADPH in 0.2 mL of a buffer solution (50 mmol/L Tris-HCl pH 7.4, 150 mmol/L potassium chloride, and 10 mmol/L magnesium chloride) containing 0.5 mg protein/mL of the human liver microsomes (oxidative reaction). After the reaction, 50 μL of the reaction solution was added to 100 μL of a solution of methanol/acetonitrile=1/1 (v/v), and the mixture was mixed and centrifuged at 3000 rpm for 15 minutes. The compound of the present invention in the centrifugation supernatant was quantified by LC/MS/MS or solid-phase extraction (SPE)/MS. The amount of the compound of the present invention remaining after the reaction was calculated with the amount of the compound at 0 minutes of the reaction defined as 100%.

Data set [3] deals with HIV mutant strains (E92Q/E138T/G140S/Q148H). The data set is described as follows: Test Example 2: Resistance evaluation test (HeLa-CD4 cells, wild and mutant strain). To be noted: 3 days. Type of data set: cell-based. The protocol:
Test Example 2: Resistance Evaluation Test
Serial dilutions of a test sample were prepared in a 96-well microplate (50 μL/well). 2.5×10^5 cells/mL of a HeLa-CD4 cell suspension was dispensed at 100 μL/well to the plate containing the test sample. Then, an HIV virus solution (wild strain and mutant strain) was dispensed at 50 μL/well. The plate was mixed with a plate mixer and cultured for 3 days in a CO2 incubator. The culture supernatant in each well was removed by suction. A cell lysis buffer was dispensed at 100 μL/well, and the plate was frozen in a freezer (−80° C.). The plate frozen in a freezer was thawed at room temperature, then mixed with a plate mixer, and centrifuged at 1,200 rpm for 5 minutes. Beta-Glo Reagent was dispensed at 20 μL/well to a 384-well microplate, 2 μL of the supernatant of each well (diluted as necessary) of the plate after centrifugation was added, and then the mixture was reacted at room temperature for about 30 minutes. The amount of luminescence of the plate after the reaction was measured with a microplate reader. A 50% HIV inhibitory concentration (EC50) was determined from a concentration-dependent curve using the following 4 parameter logistic curve fitting model. y=A+((B−A)/(1+((C/x)^D))) • A=minimum rate of inhibition (negative control, 0%) • B=maximum rate of inhibition (positive control, 100%) • C=compound concentration at an inflection point • D=slope coefficient • x=compound concentration • y=rate of inhibition (%)
The degree of resistance (fold change (FC)) of each mutant strain was calculated according to the following expression. • FC=EC50 of the mutant strain/EC50 of the wild strain (Results)

The nature of data set [4]: Test Example 6: Clearance evaluation test. Particulars: plasma, 1 umol/kg, rat, intravenous 1 μmol/kg; for half-life: read-out: Elimination half-life (t½) (converted); for clearance: read-out: Total body clearance (CLtot). The data set is classed as in vivo, Rats. The source says: Test Example 6: Clearance Evaluation Test Experimental Material and Method (1) Animals used: Rats were used. (2) Breeding conditions: The rats were allowed to freely take solid food and sterilized tap water. (3) Dose and grouping setting: A predetermined dose was intravenously administered. Groups were set as follows: Intravenous administration: 1 μmol/kg (n=2) (4) Preparation of dosing solution: The test sample was solubilized using a solvent of dimethyl sulfoxide/propylene glycol=1/1 and administered. (5) Administration method: The test sample was administered to the tail vein through a syringe with an injection needle. (6) Evaluation item: Blood was collected over time, and the concentration of the compound of the present invention in plasma was measured using LC/MS/MS. (7) Statistical analysis: Total body clearance (CLtot) and elimination half-life (t½) were calculated as to change in the concentration of the compound of the present invention in plasma by the moment analysis method.

The test system of data set [5] is HIV. Briefly: Test Example 14: Anti-HIV activity evaluation test in presence of human serum protein. The data set is classed as cell-based. To be noted: MT-4 cells; PS=4×(EC50 with 25% human serum protein/EC50 without); 100% extrapolated value. How it is done: Test Example 14: Anti-HIV Activity Evaluation Test in Presence of Human Serum Protein
Serial dilutions of a test sample were prepared in a 384-well microplate by a dispensing machine. A human serum protein solution (human serum protein concentration 50%) was dispensed at 20 μL/well to a 384-well microplate containing the test sample and left to stand still at room temperature for 1 hour. A culturing solution was dispensed at 20 μL/well to a plate for the absence of serum. 1 mL of 3.0×10^6 cells/mL of MT-4 cells and a 300 μL HIV virus solution were mixed and reacted at 37° C. for 1 hour. After the reaction, the cell suspension was centrifuged to discard the supernatant, the infected cells were dispersed in 40 mL of a culturing solution and the resultant solution was dispensed at 20 μL/well to a 384-well microplate containing the test sample and the human serum protein (human serum protein final concentration: 25%). The plate was mixed with a plate mixer and cultured for 4 days in a CO2 incubator. On day 4 of culture, CellTiter-Glo or CellTiter-Glo 2.0 was dispensed at 20 μL/well. The plate was reacted while being stirred with the plate mixer at room temperature for about 15 minutes. The amount of luminescence of the plate after the reaction was measured with a microplate reader. […]
The potency shift (PS) was calculated on the basis of the following calculation formula. […]

A further data set concerns the target T1, Nav 1.5 channel (Homo sapiens, UniProt Q14524).
T1 construct: expressed in transfected cells; host or cells: HEK cells
Briefly: Test Example 13: Nav test. The data set is classed as cell-based. To be noted: HEK cells expressing Nav 1.5 channel, INa, whole cell patch clamp, relative to vehicle. The source says:
Test Example 13: Nav Test
For the purpose of assessing proarrhythmic risk of the compound of the present invention, effects of the compound of the present invention on Na^+ current (INa), which plays an important role in the myocardial depolarization process, was studied using HEK cells expressing Voltage gated sodium channel (Nav 1.5 channel) encoded by SCNSA gene.
After a cell was retained at a membrane potential of −100 mV by the whole cell patch clamp method using an automated patch clamp system (QPatch; Sophion Bioscience A/S), INa induced by depolarization pulse stimulation at −10 mV for 20 milliseconds was recorded. An extracellular fluid (NaCl: 145 mmol/L, KCl 4 mmol/L, CaCl2: 2 mmol/L, MgCl2: 1 mmol/L, glucose: 10 mmol/L, HEPES (4-(2-hydroxyethyl)-1-piperazineethanesulfonic acid): 10 mmol/L, tetraethylammonium hydroxide (TEA): 10 mmol/L, pH=7.4) adjusted to 0.3% with dimethyl sulfoxide was used as a vehicle to apply the vehicle and the extracellular fluid containing the compound of the present invention dissolved at a concentration of interest to the cells under conditions of room temperature for 5 minutes or longer. From the obtained INa, the absolute value of the maximum peak current based on the current value at the membrane potential where the cells have been kept was measured using analytical software (QPatch Assay software; Sophion Bioscience A/S). The ratio of the maximum peak current at the time of applying the compound of the present invention to the maximum peak current at the time of applying the vehicle and the electric charge amount at the time of applying the compound of the present invention with respect to the electric charge amount at the time of applying vehicle were calculated, and the influence of the compound of the present invention on INa was evaluated.

The target in another data set is T2, CYP3A4 (Homo sapiens, UniProt P08684).
T2 construct: pooled human liver microsomes, 0.5 mg/mL for the prereaction; from tissue; host or cells: pooled human liver microsomes
T2 sequence (P08684 whole entry): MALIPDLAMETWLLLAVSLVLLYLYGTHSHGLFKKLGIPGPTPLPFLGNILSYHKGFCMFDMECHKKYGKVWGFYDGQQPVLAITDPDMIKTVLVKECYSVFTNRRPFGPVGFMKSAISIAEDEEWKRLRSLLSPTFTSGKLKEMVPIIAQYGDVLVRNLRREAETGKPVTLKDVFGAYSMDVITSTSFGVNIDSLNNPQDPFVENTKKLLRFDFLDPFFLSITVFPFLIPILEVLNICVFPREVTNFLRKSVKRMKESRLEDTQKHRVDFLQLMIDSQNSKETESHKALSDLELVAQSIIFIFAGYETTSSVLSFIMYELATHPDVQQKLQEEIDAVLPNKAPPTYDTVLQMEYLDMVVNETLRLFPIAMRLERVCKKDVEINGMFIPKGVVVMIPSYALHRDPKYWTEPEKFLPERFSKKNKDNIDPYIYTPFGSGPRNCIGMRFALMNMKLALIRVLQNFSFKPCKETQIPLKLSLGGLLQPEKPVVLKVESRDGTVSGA
Briefly: Test Example 4: CYP3A4 (MDZ) MBI test. The data set is classed as in vitro ADME. To be noted: pooled human liver microsomes, midazolam 1-hydroxylation, IC 0 min preincubation/IC 30-min preincubation. The protocol: Test Example 4: CYP3A4 (MDZ) MBI Test
This test as to the inhibition of CYP3A4 by the compound of the present invention is to evaluate mechanism based inhibition (MBI) ability from enhancement in inhibitory effect, caused by a metabolism reaction, of the compound of the present invention. CYP3A4 inhibition was evaluated using pooled human liver microsomes by 1-hydroxylation reaction of midazolam (MDZ) as a marker reaction. […]
The pooled human liver microsomes and a solution of the compound of the present invention were added according to the recipe of the prereaction described above into a K-Pi buffer solution (pH 7.4) as a prereaction solution in a 96-well plate. […] After centrifuged at 3000 rpm for 15 minutes, 1-hydroxymidazolam in the supernatant was quantified by LC/MS/MS.
Only a solvent DMSO used for dissolving the compound was added to the reaction solution instead of the compound of the present invention, and the mixture was used as a control (100%). Remaining activity (%) at the time of the addition of the compound of the present invention at each concentration was calculated, and IC was calculated by inverse estimation based on a logistic model using the concentrations and the rates of suppression. A shifted IC value is calculated from IC from the 0 min preincubation/IC from the 30-min preincubation. […]
(In general: Liver microsomes are vesicles of endoplasmic reticulum, rich in cytochrome P450 enzymes.)

T1 sequence (Q14524 whole entry): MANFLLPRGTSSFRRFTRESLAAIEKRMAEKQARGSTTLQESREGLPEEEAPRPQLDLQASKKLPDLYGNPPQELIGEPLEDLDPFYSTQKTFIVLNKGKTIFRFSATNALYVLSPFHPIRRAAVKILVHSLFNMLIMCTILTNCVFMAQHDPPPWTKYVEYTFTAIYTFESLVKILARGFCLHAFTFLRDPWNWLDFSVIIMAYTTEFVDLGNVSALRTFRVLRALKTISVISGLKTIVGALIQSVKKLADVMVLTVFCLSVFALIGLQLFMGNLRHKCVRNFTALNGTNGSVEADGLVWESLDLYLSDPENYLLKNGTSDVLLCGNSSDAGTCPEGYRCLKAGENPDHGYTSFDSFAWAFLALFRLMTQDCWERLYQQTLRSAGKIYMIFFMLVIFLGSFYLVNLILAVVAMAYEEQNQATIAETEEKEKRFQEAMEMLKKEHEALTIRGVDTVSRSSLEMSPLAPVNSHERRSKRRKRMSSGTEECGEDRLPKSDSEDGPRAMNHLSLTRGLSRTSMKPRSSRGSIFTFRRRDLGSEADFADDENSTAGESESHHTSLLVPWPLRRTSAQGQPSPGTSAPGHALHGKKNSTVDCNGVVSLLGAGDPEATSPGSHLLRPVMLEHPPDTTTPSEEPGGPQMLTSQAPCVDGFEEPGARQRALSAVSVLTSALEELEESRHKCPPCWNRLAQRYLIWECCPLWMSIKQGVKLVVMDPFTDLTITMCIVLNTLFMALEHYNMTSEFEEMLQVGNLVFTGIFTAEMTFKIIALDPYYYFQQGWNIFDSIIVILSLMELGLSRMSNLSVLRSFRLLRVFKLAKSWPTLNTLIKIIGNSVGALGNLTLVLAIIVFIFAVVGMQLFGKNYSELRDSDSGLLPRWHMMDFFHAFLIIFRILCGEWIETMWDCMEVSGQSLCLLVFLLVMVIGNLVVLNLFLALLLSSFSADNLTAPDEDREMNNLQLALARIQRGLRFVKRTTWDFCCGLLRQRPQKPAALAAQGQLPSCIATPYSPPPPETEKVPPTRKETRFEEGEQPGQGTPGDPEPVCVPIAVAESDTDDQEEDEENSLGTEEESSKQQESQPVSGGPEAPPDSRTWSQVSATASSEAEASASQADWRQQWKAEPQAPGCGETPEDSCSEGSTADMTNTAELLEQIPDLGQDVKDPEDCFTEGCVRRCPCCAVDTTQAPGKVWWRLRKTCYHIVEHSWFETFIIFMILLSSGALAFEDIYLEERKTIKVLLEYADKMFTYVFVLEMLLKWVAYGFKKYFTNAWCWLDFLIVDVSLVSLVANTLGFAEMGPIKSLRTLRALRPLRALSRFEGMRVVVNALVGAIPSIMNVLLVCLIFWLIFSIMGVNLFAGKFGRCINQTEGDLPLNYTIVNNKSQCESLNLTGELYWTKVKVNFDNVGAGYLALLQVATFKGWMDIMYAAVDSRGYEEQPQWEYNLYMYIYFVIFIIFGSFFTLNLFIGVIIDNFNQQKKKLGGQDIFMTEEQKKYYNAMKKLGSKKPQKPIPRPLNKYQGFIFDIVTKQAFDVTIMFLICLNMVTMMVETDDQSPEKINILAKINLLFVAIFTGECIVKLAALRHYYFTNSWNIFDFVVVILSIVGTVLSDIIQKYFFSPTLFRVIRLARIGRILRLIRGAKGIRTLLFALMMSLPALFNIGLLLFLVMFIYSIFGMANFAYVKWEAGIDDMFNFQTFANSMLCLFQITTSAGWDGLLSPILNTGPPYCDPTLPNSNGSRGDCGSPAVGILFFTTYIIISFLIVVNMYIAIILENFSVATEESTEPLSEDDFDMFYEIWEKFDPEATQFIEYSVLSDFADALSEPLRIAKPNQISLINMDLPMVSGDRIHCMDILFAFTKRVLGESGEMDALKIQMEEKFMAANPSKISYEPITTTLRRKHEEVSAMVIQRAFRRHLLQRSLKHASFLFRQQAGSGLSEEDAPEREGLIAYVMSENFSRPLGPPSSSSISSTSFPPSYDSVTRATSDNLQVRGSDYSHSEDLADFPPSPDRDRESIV

For the compound `CCN1C(=O)c2c(O)c(=O)c(C(=O)NCc3nccc(Cl)c3F)cn2[C@H]2CCCC[C@H]21` [Compound I-003], in the data set on HIV [1], the EC50 came to 3.9 nM. The same compound displayed a Remaining rate in data set [2] of 91.7%.
On to `CCN1C(=O)c2c(O)c(=O)c(C(=O)NCc3cccc(Cl)c3F)cn2[C@@H]2[C@H]1CCCC2(F)F` [Compound I-005], for which the EC50 in the data set with HIV [1] amounted to 1 nM. Moreover, the “FC (fold change, degree of resistance) = EC50 of the mutant strain/EC50 of the wild strain” value in data set [3] came out at 6.7. In data set [4], the half-life (commonly the time in which the quantity being followed falls by half) was 10.9 h and the clearance (in general, the volume of plasma or blood freed of the substance per unit of time) was 7.02 mL/h/kg. In the data set on HIV [5], the “Potency shift (PS) in the presence of human serum protein” value was 104.
For the compound `CCN1C(=O)c2c(O)c(=O)c(C(=O)NCc3cccc(Cl)c3F)cn2[C@H]2C[C@@H](COC)CC[C@H]21` [Compound I-014], in the data set on HIV [1], the EC50 amounted to 3.8 nM. In addition, in data set [3], the “FC (fold change, degree of resistance) = EC50 of the mutant strain/EC50 of the wild strain” value is 4.1.
On to `CCN1C(=O)c2c(O)c(=O)c(-c3nnc(Cc4ccc(F)cc4F)s3)cn2[C@H]2CCCC[C@H]21` [Compound I-017], for which the EC50 in the data set with HIV [1] was 4.2 nM. Besides, in data set [3], the “FC (fold change, degree of resistance) = EC50 of the mutant strain/EC50 of the wild strain” value was found to be 6.0. In data set [4], the half-life was 15.3 h and the clearance is 4.27 mL/h/kg. Besides, at Nav 1.5 channel, the “electric charge amount increase rate” value came out at 133% and the “maximum current amount increase rate” value is 95.6%.
Regarding `CCN1C(=O)c2c(O)c(=O)c(-c3nnc(Cc4ccc(F)cc4F)s3)cn2[C@H]2CCC[C@H]21` [Compound I-020], the EC50 with HIV [1] was 5 nM. The “FC (fold change, degree of resistance) = EC50 of the mutant strain/EC50 of the wild strain” value in data set [3] was found to be 7.7. Besides, in data set [2], the Remaining rate came out at 74.6%. In the data set with HIV [5], the “Potency shift (PS) in the presence of human serum protein” value is 29.
As to `CCN1C(=O)c2c(O)c(=O)c(-c3nnc(Cc4ccc(F)cc4F)s3)cn2[C@@H]2[C@H]1CCCC2(F)F` [Compound I-022], in the data set on HIV [1], the EC50 amounted to 5.3 nM. The “Shifted IC grade (mechanism based inhibition)” value at CYP3A4 is listed as “(−) (shifted IC of 1.0 or less is graded as negative (−))”. Also, at Nav 1.5 channel, the “electric charge amount increase rate” value turned out to be 137% and the “maximum current amount increase rate” value is 93.1%.
